From patent US9546157B2, “Asymmetric piperidinyl-substituted ureas as medicines” (Helsinn Healthcare SA, priority 2014, dated 2017)

Key:
[1] = target: T1, GHSR1a (Homo sapiens, UniProt Q92847); test: Calcium FLIPR assay, GHSR-1a antagonism (reduction of ghrelin response); assay type: cell-based; details: HEK293/GHSR1a cells, ghrelin 10 nM
T1 construct: expressed in transfected cells; host or cells: HEK293
Description: (§1) The intracellular calcium assay was carried out in a 384-well format FLIPR™ (Molecular Device) HEK293/GHSR1a cell line. Cells were seeded 24 hr prior to the experiments at an optimal density per well. Preincubation with selected calcium dye lasted for 30-60 min at room temperature or 37° C. Test compounds, dissolved in DMSO, were added at the appropriate time and incubated for 15 min followed by the addition of ghrelin with FlexStation or FLIPR. Relative fluorescence was monitored by the FLIPR™ Molecular Device. EC50 and IC50 values were estimated from dose-response data using GraphPad Prism software. To check for GHSR-1a agonism the compound was added at t=20 sec. and the calcium response was followed for 2 minutes. To check for GHSR-1a antagonism the compound and Ghrelin (10 nM) were added to the cells at t=20 sec. and the calcium response was measured for 2 minutes. The potency of the antagonist was calculated by its ability to reduce the ghrelin response. Dose-response curves were made for relevant antagonists.

[2] = target: T1, GHSR1a; test: Calcium FLIPR assay, GHSR-1a agonism; assay type: cell-based; set-up: Emax: unit not given here; details: HEK293/GHSR1a cells
Description: as §1

T1 sequence (Q92847 whole entry): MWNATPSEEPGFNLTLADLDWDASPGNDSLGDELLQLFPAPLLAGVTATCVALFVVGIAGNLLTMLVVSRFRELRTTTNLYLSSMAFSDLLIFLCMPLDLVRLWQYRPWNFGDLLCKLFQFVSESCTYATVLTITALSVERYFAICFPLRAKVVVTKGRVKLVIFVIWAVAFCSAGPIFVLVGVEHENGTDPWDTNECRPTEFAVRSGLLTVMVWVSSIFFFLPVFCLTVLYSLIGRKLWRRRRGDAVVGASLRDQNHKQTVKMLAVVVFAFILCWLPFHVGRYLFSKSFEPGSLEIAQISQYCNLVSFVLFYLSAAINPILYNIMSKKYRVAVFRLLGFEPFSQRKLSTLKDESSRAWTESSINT

| SMILES | IC50 [1] [µM] | EC50 [2] [µM] | Emax [2] |
| --- | --- | --- | --- |
| CN1CCC(N(C)C(=O)NC(CC2CC2)c2ccc(-c3cnccn3)c(Cl)c2Cl)C1 (centres unmarked) [Compound H0874, 3-(2-cyclopropyl-1-(2,3-dichloro-4-(pyrazin-2-yl)phenyl)ethyl)-1-methyl-1-(1-methylpyrrolidin-3-yl)urea] | 0.115 | > 30 | – |
| CC(NC(=O)N(C)C1CCN(C)CC1)c1ccc(-c2ccncc2)c2ccccc12 (centres unmarked) [Compound H0578, 1-methyl-1-(1-methylpiperidin-4-yl)-3-(1-(4-(pyridin-4-yl)naphthalen-1-yl)ethyl)urea] | 0.49 | > 30 | – |
| CC(NC(=O)N(C)C1CCN(C)CC1)c1cnc(-c2cnccn2)c(Cl)c1Cl (centres unmarked) [Compound H0881, 3-(1-(4,5-dichloro-6-(pyrazin-2-yl)pyridin-3-yl)ethyl)-1-methyl-1-(1-methylpiperidin-4-yl)urea] | 0.81 | > 30 | – |
| CC(NC(=O)N(C)C1CCN(C)CC1)c1ccc(-c2cc(F)cc(F)c2)c(Cl)c1Cl (centres unmarked) [Compound H0605, 3-(1-(2,3-dichloro-3′,5′-difluoro[1,1′-biphenyl]-4-yl)ethyl)-1-methyl-1-(1-methylpiperidin-4-yl)urea] | 0.031 | 0.096 | 1833 |
| CC(NC(=O)N(C)C1CCN(C)CC1)c1ccc(C#Cc2c[nH]cn2)c(Cl)c1Cl (centres unmarked) [Compound H0763, 3-(1-(4-((1H-imidazol-4-yl)ethynyl)-2,3-dichlorophenyl)ethyl)-1-methyl-1-(1-methylpiperidin-4-yl)urea] | 0.835 | > 30 | – |
| CCC(NC(=O)N(CC)C1CCN(C)CC1)c1ccc(-c2cnccn2)c(Cl)c1Cl (centres unmarked) [Compound H0896, 3-(1-(2,3-dichloro-4-(pyrazin-2-yl)phenyl)propyl)-1-ethyl-1-(1-methylpiperidin-4-yl)urea] | 0.007 | > 30 | – |
| CN1CCC(N(C)C(=O)NC(c2ccc(-c3cnccn3)c(Cl)c2Cl)C(F)(F)F)C1 (centres unmarked) [Compound H0871, 3-(1-(2,3-dichloro-4-(pyrazin-2-yl)phenyl)-2,2,2-trifluoroethyl)-1-methyl-1-(1-methylpyrrolidin-3-yl)urea] | 0.009 | > 30 | – |
| CC(NC(=O)N(C)C1CCN(C)CC1)c1ccc(-c2ccc(C(=O)N(C)C)s2)c(Cl)c1Cl (centres unmarked) [Compound H0726, 5-(2,3-dichloro-4-(1-(3-methyl-3-(1-methylpiperidin-4-yl)ureido)ethyl)phenyl)-N,N-dimethylthiophene-2-carboxamide] | 0.456 | > 30 | – |
| COc1ccc(C(C)(C#N)NC(=O)N(C)C2CCN(C)CC2)c(Cl)c1Cl (centres unmarked) [Compound H0671, 3-(1-cyano-1-(2,3-dichloro-4-methoxyphenyl)ethyl)-1-methyl-1-(1-methylpiperidin-4-yl)urea] | 0.034 | 0.06 | 3748 |
| CC(NC(=O)N(C)C1CCN(C)CC1)c1ccc(-c2cccc(C(N)=O)c2)c(Cl)c1Cl (centres unmarked) [Compound H0612, 2′,3′-dichloro-4′-(1-(3-methyl-3-(1-methylpiperidin-4-yl)ureido)ethyl)-[1,1′-biphenyl]-3-carboxamide] | 1.6 | > 30 | – |
| CC(NC(=O)N(C)C1CCN(C)CC1)c1ccc(-c2nccnn2)c(Cl)c1Cl (centres unmarked) [Compound H0793, 3-(1-(2,3-dichloro-4-(1,2,4-triazin-3-yl)phenyl)ethyl)-1-methyl-1-(1-methylpiperidin-4-yl)urea] | 0.021 | 0.022 | 3501 |
| CC(NC(=O)N(C)C1CCN(C)CC1)c1ccc(C=O)c(Cl)c1Cl (centres unmarked) [Compound H0640, 3-(1-(2,3-dichloro-4-formylphenyl)ethyl)-1-methyl-1-(1-methylpiperidin-4-yl)urea] | 0.103 | > 30 | – |
| CC(NC(=O)N(C)C1CCN(C)CC1)c1ccc(Nc2cccs2)c(Cl)c1Cl (centres unmarked) [Compound H0777, 3-(1-(2,3-dichloro-4-(thiophen-2-ylamino)phenyl)ethyl)-1-methyl-1-(1-methylpiperidin-4-yl)urea] | 0.715 | 0.6 | 2288 |
| CC(NC(=O)N(C)C1CCN(C)CC1)c1ccc(-c2cnc(N3CCCC3)nc2)c(Cl)c1Cl (centres unmarked) [Compound H0813] | 0.644 | 0.528 | 1605 |
| CC(NC(=O)N(C)C1CCN(C)CC1)c1ccc(NC(=O)Nc2cccs2)c(Cl)c1Cl (centres unmarked) [Compound H0784, 3-(1-(2,3-dichloro-4-(4-(thiophen-2-yl)ureido)phenyl)ethyl)-1-methyl-1-(1-methylpiperidin-4-yl)urea] | 0.529 | > 30 | – |
| Cc1nccnc1-c1ccc(C(C)NC(=O)N(C)C2CCN(C)CC2)c(Cl)c1Cl (centres unmarked) [Compound H0831, 3-(1-(2,3-dichloro-4-(3-methylpyrazin-2-yl)phenyl)ethyl)-1-methyl-1-(1-methylpiperidin-4-yl)urea] | 1.2 | > 30 | – |
| COC(=O)c1ccc(C(C)NC(=O)N(C)C2CCN(C)CC2)c(Cl)c1Cl (centres unmarked) [Compound H0521] | 0.02 | 0.019 | – |
| CCC(NC(=O)N(C)C1CCN(C)C1)c1ccc(-c2cncc(F)n2)c(Cl)c1Cl (centres unmarked) [Compound H0864, 3-(1-(2,3-dichloro-4-(6-fluoropyrazin-2-yl)phenyl)propyl)-1-methyl-1-(1-methylpyrrolidin-3-yl)urea] | 0.718 | > 30 | – |
| CC(NC(=O)N(C)C1CCN(C)CC1)c1ccc(C#CCN2CCN(C)CC2)c(Cl)c1Cl (centres unmarked) [Compound H0812, 3-(1-(2,3-dichloro-4-(3-(4-methylpiperazin-1-yl)prop-1-yn-1-yl)phenyl)ethyl)-1-methyl-1-(1-methylpiperidin-4-yl)urea] | 1.2 | 1.5 | 871 |
| CON(C(=O)NC(CC1CC1)c1ccc(-c2cnccn2)c(Cl)c1Cl)C1CCN(C)CC1 (centres unmarked) [Compound H0741, 3-(2-cyclopropyl-1-(2,3-dichloro-4-(pyrazin-2-yl)phenyl)ethyl)-1-methoxy-1-(1-methylpiperidin-4-yl)urea] | 0.015 | > 30 | – |

Other lines, results leading:

| IC50 [1] [µM] | EC50 [2] [µM] | Emax [2] | SMILES |
| --- | --- | --- | --- |
| 0.171 | 0.149 | 2364 | CC(NC(=O)N(C)C1CCN(C)CC1)c1ccc(-c2cnc(-n3ccnc3)nc2)c(Cl)c1Cl (centres unmarked) [Compound H0803, 3-(1-(4-(2-(1H-imidazol-1-yl)pyrimidin-5-yl)-2,3-dichlorophenyl)ethyl)-1-methyl-1-(1-methylpiperidin-4-yl)urea] |
| 0.013 | 0.013 | 1729 | CC(NC(=O)N(O)C1CCN(C)CC1)c1ccc(-c2cnccn2)c(Cl)c1Cl (centres unmarked) [Compound H0756, 3-(1-(2,3-dichloro-4-(pyrazin-2-yl)phenyl)ethyl)-1-hydroxy-1-(1-methylpiperidin-4-yl)urea] |
| 0.0057 | 0.009 | 3955 | CC(NC(=O)N(C)C1CCN(C)CC1)c1ccc(-c2ccc(C3CC3)nc2)c(Cl)c1Cl (centres unmarked) [Compound H0820, 3-(1-(2,3-dichloro-4-(6-cyclopropylpyridin-3-yl)phenyl)ethyl)-1-methyl-1-(1-methylpiperidin-4-yl)urea] |
| 0.04 | 0.13 | – | CC(NC(=O)N(C)C1CCN(C)CC1)c1ccc(-c2ccc(F)nc2)c(Cl)c1Cl (centres unmarked) [Compound H0618, 3-(1-(2,3-dichloro-4-(6-fluoropyridin-3-yl)phenyl)ethyl)-1-methyl-1-(1-methylpiperidin-4-yl)urea] |
| 0.676 | > 30 | – | CON(C(=O)NC(C#N)c1ccc(-c2cncnc2)c(Cl)c1Cl)C1CCN(C)CC1 (centres unmarked) [Compound H0709] |
| 0.275 | 0.395 | 1621 | C#Cc1cncc(-c2ccc(C(C)NC(=O)N(C)C3CCN(C)CC3)c(Cl)c2Cl)c1 (centres unmarked) [Compound H0710, 3-(1-(2,3-dichloro-4-(5-ethynylpyridin-3-yl)phenyl)ethyl)-1-methyl-1-(1-methylpiperidin-4-yl)urea] |
| 0.02 | 0.045 | 3915 | CC(NC(=O)N(C)C1CCN(C)CC1)c1ccc(-c2cnc(Cl)nc2)c(Cl)c1Cl (centres unmarked) [Compound H0801, 3-(1-(2,3-dichloro-4-(2-chloropyrimidin-5-yl)phenyl)ethyl)-1-methyl-1-(1-methylpiperidin-4-yl)urea] |
| 0.094 | > 30 | – | CON(C(=O)NC(C)c1ccc(-c2cnccn2)c(Cl)c1Cl)C1CCN(C)CC1 (centres unmarked) [Compound H0743, 3-(1-(2,3-dichloro-4-(pyrazin-2-yl)phenyl)ethyl)-1-methoxy-1-(1-methylpiperidin-4-yl)urea] |
| 0.253 | > 30 | – | CC(NC(=O)N(O)C1CCN(C)CC1)c1ccc(-c2cncnc2)c(Cl)c1Cl (centres unmarked) [Compound H0624, 3-(1-(2,3-dichloro-4-(pyrimidin-5-yl)phenyl)ethyl)-1-hydroxy-1-(1-methylpiperidin-4-yl)urea] |
| 0.075 | 0.124 | 1987 | CC(NC(=O)N(C)C1CCN(C)CC1)c1ccc(-c2cccs2)c(Cl)c1Cl (single isomer, unassigned) [Compound H0564, 3-(1-(2,3-dichloro-4-(thiophen-2-yl)phenyl)ethyl)-1-methyl-1-(1-methylpiperidin-4-yl)urea] |
| 0.78 | > 30 | – | CC(NC(=O)N(C)C1CCN(C)CC1)c1ccc(-c2cncc(N3CCCC3)c2)c(Cl)c1Cl (centres unmarked) [Compound H0719, 3-(1-(2,3-dichloro-4-(5-(pyrrolidin-1-yl)pyridin-3-yl)phenyl)ethyl)-1-methyl-1-(1-methylpiperidin-4-yl)urea] |
